Test results taken from PMC3420011, “Small-Molecule Inhibition of BRDT for Male Contraception” (Cell, 2012).

Molecular target: T1, BRDT (Mus musculus, UniProt Q91Y44)
T1 construct: mBRDT(1) 23–133, first (N-terminal) bromodomain
Test: AlphaScreen competition with H4Kac4 peptide (IC50); ITC
Type: binding

Compound: Cc1sc2c(c1C)C(c1ccc(Cl)cc1)=N[C@@H](CC(=O)OC(C)(C)C)c1nnc(C)n1-2 [(+)-JQ1]
- IC50: 10 nM
